Tested on: subjects with narcolepsy type-2 (NT2)
Experiment: Part 5 POC NT2: treatment-emergent adverse events, single doses, crossover
Details: N = 9
Method: Part 5 consisted of a 4-way, 4-period crossover study design in approximately 8 subjects (2 subjects per sequence; minimum of 4 subjects with 1 subject per sequence). Subjects were randomized 1:1:1:1 to 1 of 4 sequences with 4 treatment periods (3 single doses of Compound A and 1 dose of matching placebo), with up to 48 hours of washout between treatments. Treatments were administered under fasted state.
Subjects were randomized to 1 of 4 sequences. […] In each period, subjects were administered a single dose of study drug (either Compound A or placebo) as per the randomization schedule with approximately 240 mL of noncarbonated water following overnight fasting. No food was given for at least 3 hours after dose administration (i.e., fast can be broken after the 3-hour PK time point is collected). Water was allowed ad libitum except for 1 hour before and 1 hour after study drug administration. Safety assessments including AEs, safety ECGs, vital signs, and clinical laboratory tests were conducted, and plasma PK samples were collected. Furthermore, BP and HR were monitored once every hour for 12 hours on the dosing days.
Adverse events (AEs) and serious adverse events (SAEs) were monitored continuously until the completion of the study.
Nine subjects with NT2 were dosed in Part 5 (POC in NT2) in a randomized 4-sequence 4-period cross-over design. Each dose of Compound A or matching placebo was separated by 2 days. A 14-day washout period preceded the treatment period and included discontinuation of narcolepsy medications. All 9 subjects underwent the washout period and received at least one dose of Compound A. All subjects completed all 4-way randomized crossover periods.

CS(=O)(=O)N[C@H]1CCCN2C(=O)COc3ccccc3C3CCC(CC3)OCC12 (stereo partly drawn) [Compound A, N-[(4S,4aR,7α,10α)-1,2,3,4,4a,5,7,8,9,10,16,17-dodecahydro-17-oxo-7,10-ethanopyrido[1,2-d][1,7,4]benzodioxaazacyclotridecin-4-yl]methanesulfonamide]
AE Leading to Study Drug Discontinuation (5 mg single dose): 0 n (%)
Any SAEs (5 mg single dose): 0 n (%)
Any TEAE (5 mg single dose): 3 (33.3) n (%)
Death (5 mg single dose): 0 n (%)
Drug Related TEAE by Preferred Term: Altered state of consciousness (5 mg single dose): 0 n (%)
Drug Related TEAE by Preferred Term: Dizziness (5 mg single dose): 0 n (%)
Drug Related TEAE by Preferred Term: Dizziness postural (5 mg single dose): 0 n (%)
Drug Related TEAE by Preferred Term: Feeling jittery (5 mg single dose): 0 n (%)
Drug Related TEAE by Preferred Term: Headache (5 mg single dose): 0 n (%)
Drug Related TEAE by Preferred Term: Initial insomnia (5 mg single dose): 1 (11.1) n (%)
Drug Related TEAE by Preferred Term: Insomnia (5 mg single dose): 0 n (%)
Drug Related TEAE by Preferred Term: Photophobia (5 mg single dose): 0 n (%)
Drug Related TEAE by Preferred Term: Pollakiuria (5 mg single dose): 0 n (%)
Drug Related TEAE by Preferred Term: Tachycardia (5 mg single dose): 0 n (%)
Drug Related TEAE by Preferred Term: Urinary incontinence (5 mg single dose): 0 n (%)
Subjects with at least one TEAE (5 mg single dose): 3 (33.3) n (%)
Subjects with at least one treatment-related TEAE (5 mg single dose): 1 (11.1) n (%)
TEAE by Highest Relationship: Not Related (5 mg single dose): 2 (22.2) n (%)
TEAE by Highest Relationship: Related (5 mg single dose): 1 (11.1) n (%)
TEAE by Highest Severity: Mild (5 mg single dose): 3 (33.3) n (%)
TEAE by Highest Severity: Moderate (5 mg single dose): 0 n (%)
TEAE by Highest Severity: Severe (5 mg single dose): 0 n (%)
TEAE by Preferred Term: Altered state of consciousness (5 mg single dose): 0 n (%)
TEAE by Preferred Term: Constipation (5 mg single dose): 0 n (%)
TEAE by Preferred Term: Contusion (5 mg single dose): 0 n (%)
TEAE by Preferred Term: Dizziness (5 mg single dose): 0 n (%)
TEAE by Preferred Term: Dizziness postural (5 mg single dose): 0 n (%)
TEAE by Preferred Term: Dry skin (5 mg single dose): 1 (11.1) n (%)
TEAE by Preferred Term: Feeling jittery (5 mg single dose): 0 n (%)
TEAE by Preferred Term: Headache (5 mg single dose): 0 n (%)
TEAE by Preferred Term: Initial insomnia (5 mg single dose): 1 (11.1) n (%)
TEAE by Preferred Term: Insomnia (5 mg single dose): 0 n (%)
TEAE by Preferred Term: Nasal dryness (5 mg single dose): 0 n (%)
TEAE by Preferred Term: Nausea (5 mg single dose): 0 n (%)
TEAE by Preferred Term: Photophobia (5 mg single dose): 0 n (%)
TEAE by Preferred Term: Pollakiuria (5 mg single dose): 0 n (%)
TEAE by Preferred Term: Rash (5 mg single dose): 0 n (%)
TEAE by Preferred Term: Skin lesion (5 mg single dose): 1 (11.1) n (%)
TEAE by Preferred Term: Tachycardia (5 mg single dose): 0 n (%)
TEAE by Preferred Term: Urinary incontinence (5 mg single dose): 0 n (%)
AE Leading to Study Drug Discontinuation (12 mg single dose): 0 n (%)
Any SAEs (12 mg single dose): 0 n (%)
Any TEAE (12 mg single dose): 4 (44.4) n (%)
Death (12 mg single dose): 0 n (%)
Drug Related TEAE by Preferred Term: Altered state of consciousness (12 mg single dose): 0 n (%)
Drug Related TEAE by Preferred Term: Dizziness (12 mg single dose): 0 n (%)
Drug Related TEAE by Preferred Term: Dizziness postural (12 mg single dose): 0 n (%)
Drug Related TEAE by Preferred Term: Feeling jittery (12 mg single dose): 0 n (%)
Drug Related TEAE by Preferred Term: Headache (12 mg single dose): 0 n (%)
Drug Related TEAE by Preferred Term: Initial insomnia (12 mg single dose): 0 n (%)
Drug Related TEAE by Preferred Term: Insomnia (12 mg single dose): 0 n (%)
Drug Related TEAE by Preferred Term: Photophobia (12 mg single dose): 0 n (%)
Drug Related TEAE by Preferred Term: Pollakiuria (12 mg single dose): 1 (1.1) n (%)
Drug Related TEAE by Preferred Term: Tachycardia (12 mg single dose): 0 n (%)
Drug Related TEAE by Preferred Term: Urinary incontinence (12 mg single dose): 0 n (%)
Subjects with at least one TEAE (12 mg single dose): 4 (44.4) n (%)
Subjects with at least one treatment-related TEAE (12 mg single dose): 1 (11.1) n (%)
TEAE by Highest Relationship: Not Related (12 mg single dose): 3 (33.3) n (%)
TEAE by Highest Relationship: Related (12 mg single dose): 1 (11.1) n (%)
TEAE by Highest Severity: Mild (12 mg single dose): 4 (44.4) n (%)
TEAE by Highest Severity: Moderate (12 mg single dose): 0 n (%)
TEAE by Highest Severity: Severe (12 mg single dose): 0 n (%)
TEAE by Preferred Term: Altered state of consciousness (12 mg single dose): 0 n (%)
TEAE by Preferred Term: Constipation (12 mg single dose): 1 (11.1) n (%)
TEAE by Preferred Term: Contusion (12 mg single dose): 0 n (%)
TEAE by Preferred Term: Dizziness (12 mg single dose): 0 n (%)
TEAE by Preferred Term: Dizziness postural (12 mg single dose): 0 n (%)
TEAE by Preferred Term: Dry skin (12 mg single dose): 0 n (%)
TEAE by Preferred Term: Feeling jittery (12 mg single dose): 0 n (%)
TEAE by Preferred Term: Headache (12 mg single dose): 0 n (%)
TEAE by Preferred Term: Initial insomnia (12 mg single dose): 0 n (%)
TEAE by Preferred Term: Insomnia (12 mg single dose): 0 n (%)
TEAE by Preferred Term: Nasal dryness (12 mg single dose): 0 n (%)
TEAE by Preferred Term: Nausea (12 mg single dose): 1 (11.1) n (%)
TEAE by Preferred Term: Photophobia (12 mg single dose): 0 n (%)
TEAE by Preferred Term: Pollakiuria (12 mg single dose): 1 (11.1) n (%)
TEAE by Preferred Term: Rash (12 mg single dose): 1 (11.1) n (%)
TEAE by Preferred Term: Skin lesion (12 mg single dose): 0 n (%)
TEAE by Preferred Term: Tachycardia (12 mg single dose): 0 n (%)
TEAE by Preferred Term: Urinary incontinence (12 mg single dose): 0 n (%)
AE Leading to Study Drug Discontinuation (25 mg single dose): 0 n (%)

From patent publication US20250186405A1, “Compound For Use In Treating Narcolepsy” (Alkermes, Inc., priority 2023, published 2025)
